Assay results: ChEMBL document CHEMBL1124159, “Synthesis and structure-activity relationships of 2-sulfonamido-1,3,4,6,7,11b alpha-hexahydro-2H-benzo[a]quinolizines as alpha 2-adrenoceptor antagonists” (J Med Chem, 1988)

Key:
[1] = target: T1, Adrenergic receptor alpha-2 (Rattus norvegicus, UniProt P22086+P19328+P22909); assay: Antagonistic activity against alpha-2 adrenergic receptor in rat vas deferens; type: functional, tissue-based
T1 sequence (P22086 whole entry): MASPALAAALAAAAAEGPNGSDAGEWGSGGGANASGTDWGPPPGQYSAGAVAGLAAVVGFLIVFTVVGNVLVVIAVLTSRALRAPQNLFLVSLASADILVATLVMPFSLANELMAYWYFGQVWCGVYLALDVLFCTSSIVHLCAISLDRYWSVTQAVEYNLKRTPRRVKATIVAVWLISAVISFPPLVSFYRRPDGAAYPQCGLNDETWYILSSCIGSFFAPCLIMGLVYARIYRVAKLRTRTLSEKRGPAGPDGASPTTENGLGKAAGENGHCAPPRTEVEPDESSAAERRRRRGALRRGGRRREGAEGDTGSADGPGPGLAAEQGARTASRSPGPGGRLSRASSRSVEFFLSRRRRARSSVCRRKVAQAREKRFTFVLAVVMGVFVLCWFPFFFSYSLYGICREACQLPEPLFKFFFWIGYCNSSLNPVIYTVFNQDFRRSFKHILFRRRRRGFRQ
T1 sequence (P19328 whole entry): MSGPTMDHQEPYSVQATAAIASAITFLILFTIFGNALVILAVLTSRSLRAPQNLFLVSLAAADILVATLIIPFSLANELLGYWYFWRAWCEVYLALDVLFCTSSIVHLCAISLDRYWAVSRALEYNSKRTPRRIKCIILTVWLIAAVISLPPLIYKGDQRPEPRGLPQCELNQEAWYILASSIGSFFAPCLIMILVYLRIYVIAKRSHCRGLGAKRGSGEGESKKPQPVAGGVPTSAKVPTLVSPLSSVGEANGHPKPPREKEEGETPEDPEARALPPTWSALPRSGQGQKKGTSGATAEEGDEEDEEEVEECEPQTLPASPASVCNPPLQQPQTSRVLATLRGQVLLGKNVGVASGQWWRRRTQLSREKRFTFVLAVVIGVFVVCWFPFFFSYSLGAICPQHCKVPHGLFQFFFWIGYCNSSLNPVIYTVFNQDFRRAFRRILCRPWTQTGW
T1 sequence (P22909 whole entry): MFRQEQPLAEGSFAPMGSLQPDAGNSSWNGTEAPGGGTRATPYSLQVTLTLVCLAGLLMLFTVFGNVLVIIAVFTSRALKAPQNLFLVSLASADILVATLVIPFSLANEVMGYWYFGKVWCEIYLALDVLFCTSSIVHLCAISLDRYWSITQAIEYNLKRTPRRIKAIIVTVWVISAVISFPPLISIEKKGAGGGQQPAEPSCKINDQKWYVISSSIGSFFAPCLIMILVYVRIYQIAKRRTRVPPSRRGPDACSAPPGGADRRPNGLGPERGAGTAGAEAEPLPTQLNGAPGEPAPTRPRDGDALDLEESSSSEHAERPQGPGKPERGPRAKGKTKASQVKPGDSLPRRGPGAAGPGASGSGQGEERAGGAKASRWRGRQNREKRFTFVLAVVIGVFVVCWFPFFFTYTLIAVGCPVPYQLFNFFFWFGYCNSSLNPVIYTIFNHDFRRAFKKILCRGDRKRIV

[2] = target: T2, Adrenergic receptor alpha-1 (Rattus norvegicus, UniProt P15823+P23944+P43140); assay: Antagonistic activity against alpha-1 adrenergic receptor in isolated rat anococcygeus muscle; type: functional, tissue-based
T2 sequence (P15823 whole entry): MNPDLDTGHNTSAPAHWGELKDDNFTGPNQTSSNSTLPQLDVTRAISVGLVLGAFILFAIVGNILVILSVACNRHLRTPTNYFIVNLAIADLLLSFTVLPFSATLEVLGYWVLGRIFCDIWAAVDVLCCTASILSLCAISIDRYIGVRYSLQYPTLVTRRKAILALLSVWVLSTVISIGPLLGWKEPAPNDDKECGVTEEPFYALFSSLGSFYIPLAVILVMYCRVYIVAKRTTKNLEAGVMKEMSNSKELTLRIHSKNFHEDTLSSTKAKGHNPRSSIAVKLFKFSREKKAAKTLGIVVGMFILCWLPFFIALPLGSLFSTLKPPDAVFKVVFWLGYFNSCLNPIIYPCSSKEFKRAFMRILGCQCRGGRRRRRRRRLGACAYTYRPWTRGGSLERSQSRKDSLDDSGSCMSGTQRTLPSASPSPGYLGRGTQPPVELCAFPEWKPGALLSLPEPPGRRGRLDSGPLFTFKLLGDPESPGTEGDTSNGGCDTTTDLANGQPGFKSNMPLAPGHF
T2 sequence (P23944 whole entry): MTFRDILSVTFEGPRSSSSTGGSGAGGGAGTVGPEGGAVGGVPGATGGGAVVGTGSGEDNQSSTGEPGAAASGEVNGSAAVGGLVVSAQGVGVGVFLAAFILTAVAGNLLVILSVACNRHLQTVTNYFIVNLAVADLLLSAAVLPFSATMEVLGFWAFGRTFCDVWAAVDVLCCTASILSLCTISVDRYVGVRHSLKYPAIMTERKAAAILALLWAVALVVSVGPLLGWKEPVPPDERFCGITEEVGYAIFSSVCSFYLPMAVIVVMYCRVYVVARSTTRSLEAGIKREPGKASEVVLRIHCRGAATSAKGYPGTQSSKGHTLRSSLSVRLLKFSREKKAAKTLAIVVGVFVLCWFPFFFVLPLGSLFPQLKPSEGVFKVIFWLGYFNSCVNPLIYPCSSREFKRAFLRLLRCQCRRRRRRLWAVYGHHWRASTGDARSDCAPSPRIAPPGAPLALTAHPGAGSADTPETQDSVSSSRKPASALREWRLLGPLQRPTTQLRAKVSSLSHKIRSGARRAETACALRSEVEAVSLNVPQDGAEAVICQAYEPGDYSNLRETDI
T2 sequence (P43140 whole entry): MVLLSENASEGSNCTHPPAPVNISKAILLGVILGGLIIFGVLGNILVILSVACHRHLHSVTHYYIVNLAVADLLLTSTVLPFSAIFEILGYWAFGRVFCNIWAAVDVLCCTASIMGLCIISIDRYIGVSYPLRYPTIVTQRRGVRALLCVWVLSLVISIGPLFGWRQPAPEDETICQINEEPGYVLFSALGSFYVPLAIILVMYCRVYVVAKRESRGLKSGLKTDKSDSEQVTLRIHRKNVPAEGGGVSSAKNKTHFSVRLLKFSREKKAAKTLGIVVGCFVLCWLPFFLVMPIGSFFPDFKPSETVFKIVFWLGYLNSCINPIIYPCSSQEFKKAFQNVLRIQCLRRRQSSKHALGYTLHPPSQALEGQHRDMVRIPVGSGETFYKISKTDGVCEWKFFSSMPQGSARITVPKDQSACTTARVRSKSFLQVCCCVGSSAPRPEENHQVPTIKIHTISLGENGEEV

| pA2 [1] | pA2 [2] | Structure (SMILES) |
| --- | --- | --- |
| 8.44 | 7.05 | CN([C@@H]1CCN2CCc3ccccc3[C@@H]2C1)S(=O)(=O)c1ccccc1 |
| < 5 | 5.2 | CC(C)CS(=O)(=O)N(C)[C@H]1CCN2CCc3ccccc3[C@H]2C1 |
| 8.26 | 6.61 | CN([C@@H]1CCN2CCc3ccccc3[C@@H]2C1)S(=O)(=O)CCl |
| 7.87 | 6.27 | Cc1ccccc1S(=O)(=O)N(C)[C@@H]1CCN2CCc3ccccc3[C@@H]2C1 |
| 7.4 | 5.95 | CN(C)S(=O)(=O)N(C)[C@@H]1CCN2CCc3ccccc3[C@@H]2C1 |
| 7.6 | 6.09 | CN([C@@H]1CCN2CCc3ccccc3[C@@H]2C1)S(=O)(=O)c1ccc(Cl)cc1 |
| 7.7 | 6.17 | CCS(=O)(=O)N(C)[C@@H]1CCN2CCc3ccccc3[C@@H]2C1 |
| < 5 | 5.3 | CN([C@H]1CCN2CCc3ccccc3[C@H]2C1)S(C)(=O)=O |
| 8.1 | 6.5 | COc1ccc(S(=O)(=O)N(C)[C@@H]2CCN3CCc4ccccc4[C@@H]3C2)cc1 |
| 8.1 | 6.7 | CN([C@@H]1CCN2CCc3ccccc3[C@@H]2C1)S(=O)(=O)N1CCCC1 |
| 7.94 | 6.65 | CN([C@@H]1CCN2CCc3ccccc3[C@@H]2C1)S(=O)(=O)c1ccsc1 |
| 7.44 | 6.19 | CNS(=O)(=O)N(C)[C@@H]1CCN2CCc3ccccc3[C@@H]2C1 |
| 7.87 | 6.6 | CCCCS(=O)(=O)N(C)[C@@H]1CCN2CCc3ccccc3[C@@H]2C1 |
| 7.1 | 5.7 | CN([C@@H]1CCN2CCc3ccccc3[C@@H]2C1)S(N)(=O)=O |
| 6.34 | 6.55 | CC(C)CS(=O)(=O)N[C@@H]1CCN2CCc3ccccc3[C@@H]2C1 |
| 7.1 | 5.8 | CCCS(=O)(=O)N(C)[C@H]1CCN2CCc3ccccc3[C@H]2C1 |
| 7.74 | 6.8 | CCCCCS(=O)(=O)N(C)[C@@H]1CCN2CCc3ccccc3[C@@H]2C1 |
| 7.7 | 6.7 | CN([C@@H]1CCN2CCc3ccccc3[C@@H]2C1)S(=O)(=O)CC1CC1 |
| 7.56 | 5.93 | CN([C@@H]1CCN2CCc3ccccc3[C@@H]2C1)S(=O)(=O)CC(F)(F)F |
| 7.39 | 6.61 | CCN([C@@H]1CCN2CCc3ccccc3[C@@H]2C1)S(C)(=O)=O |
| 8.06 | 7.1 | CN([C@@H]1CCN2CCc3ccccc3[C@@H]2C1)S(=O)(=O)c1cccc2ccccc12 |

| pA2 [1] | pA2 [2] | Structure (SMILES) |
| --- | --- | --- |
|  | 7 | CC(C)COC(=O)N(C)[C@@H]1CCN2CCc3ccccc3[C@@H]2C1 |
| 8.1 | 6.84 | Cc1ccc(S(=O)(=O)N(C)[C@@H]2CCN3CCc4ccccc4[C@@H]3C2)cc1 |
| < 5 |  | CCCCCCCCCCCCS(=O)(=O)N(C)[C@@H]1CCN2CCc3ccccc3[C@@H]2C1 |
| 7.61 | 6.65 | CCN([C@@H]1CCN2CCc3ccccc3[C@@H]2C1)S(=O)(=O)CC(C)C |
| 8.46 | 6.84 | CN([C@@H]1CCN2CCc3ccccc3[C@@H]2C1)S(=O)(=O)c1cccc2cccnc12 |
| 7.15 | 5.49 | CN([C@@H]1CCN2CCc3ccccc3[C@@H]2C1)S(=O)(=O)C(F)(F)F |
| 7.93 | 6.32 | C=CS(=O)(=O)N(C)[C@@H]1CCN2CCc3ccccc3[C@@H]2C1 |
| 8.11 | 6.5 | CN([C@@H]1CCN2CCc3ccccc3[C@@H]2C1)S(=O)(=O)CC(C)(C)C |
| 8.22 | 6.73 | CN([C@@H]1CCN2CCc3ccccc3[C@@H]2C1)S(=O)(=O)c1cccnc1 |
|  | 6.56 | COC(=O)N(C)[C@@H]1CCN2CCc3ccccc3[C@@H]2C1 |
|  | 6.93 | CCOC(=O)N(C)[C@@H]1CCN2CCc3ccccc3[C@@H]2C1 |
| 5.7 |  | CN([C@@H]1CCN2CCc3ccccc3C2C1)S(C)(=O)=O (stereo partly drawn) |
| 7.26 | 5.6 | CN(C)CCS(=O)(=O)N(C)[C@@H]1CCN2CCc3ccccc3[C@@H]2C1 |
| 7.5 | 6.11 | CN([C@@H]1CCN2CCc3ccccc3[C@@H]2C1)S(=O)(=O)CCN1CCCCC1 |
| 5.78 | 5.86 | CCCS(=O)(=O)N(C)[C@@H]1CCN2CCc3ccccc3C2C1 (stereo partly drawn) |
| 6.77 | 6.44 | CCCN([C@@H]1CCN2CCc3ccccc3[C@@H]2C1)S(C)(=O)=O |
| 8.05 | 6.48 | CN([C@@H]1CCN2CCc3ccccc3[C@@H]2C1)S(C)(=O)=O (stereo in doubt) |
| 7.81 | 6.04 | CN([C@@H]1CCN2CCc3ccccc3[C@@H]2C1)S(C)(=O)=O (stereo in doubt; 6) |
| 8.08 | 6.34 | CCCS(=O)(=O)N(C)[C@@H]1CCN2CCc3ccccc3[C@@H]2C1 (stereo in doubt; 10) |
| 8.16 | 6.49 | CC(C)CS(=O)(=O)N(C)[C@@H]1CCN2CCc3ccccc3[C@@H]2C1 (stereo in doubt; 16) |

| Structure (SMILES) | pA2 [1] | pA2 [2] |
| --- | --- | --- |
| COP(=O)(OC)N(C)[C@@H]1CCN2CCc3ccccc3[C@@H]2C1 | 6.63 |  |
